Tests used:
[1] = target: 3-phosphoinositide-dependent protein kinase 1 (PDPK1) (Homo sapiens) (UniProt O15530); assay: Inhibition of human wild type PDK1 using bio-4xCHKT as substrate preincubated for 2 hrs followed by ATP addition and measured every 2 mins for […] by spectrophotometric analysis
[2] = target: Tyrosine-protein kinase Tec (Homo sapiens) (UniProt P42680); assay: Inhibition of human wild type TEC using PolyEY as substrate preincubated for 2 hrs followed by ATP addition and measured every 2 mins for […] by spectrophotometric analysis
[3] = target: Serine/threonine-protein kinase OSR1 (OXSR1) (Homo sapiens) (UniProt O95747); assay: Inhibition of human OSR1 preincubated for 2 hrs followed by ATP addition and measured every 2 mins for […] by spectrophotometric analysis

Measured: IC50

Sequence of Serine/threonine-protein kinase OSR1 (OXSR1) (Homo sapiens) (O95747 whole entry, looked up): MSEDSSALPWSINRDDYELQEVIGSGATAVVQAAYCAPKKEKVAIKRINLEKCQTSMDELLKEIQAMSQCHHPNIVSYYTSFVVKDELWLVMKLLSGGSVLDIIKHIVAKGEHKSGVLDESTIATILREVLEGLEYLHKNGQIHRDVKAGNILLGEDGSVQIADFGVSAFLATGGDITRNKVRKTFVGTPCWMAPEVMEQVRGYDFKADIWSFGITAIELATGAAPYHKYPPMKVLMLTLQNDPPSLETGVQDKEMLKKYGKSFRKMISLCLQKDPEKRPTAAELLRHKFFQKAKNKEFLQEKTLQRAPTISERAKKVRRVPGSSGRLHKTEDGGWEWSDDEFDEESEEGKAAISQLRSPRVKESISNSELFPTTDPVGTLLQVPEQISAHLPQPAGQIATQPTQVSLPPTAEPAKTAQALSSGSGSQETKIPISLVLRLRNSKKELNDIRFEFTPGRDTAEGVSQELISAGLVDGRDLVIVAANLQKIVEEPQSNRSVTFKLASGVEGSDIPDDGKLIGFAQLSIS
Sequence of Tyrosine-protein kinase Tec (Homo sapiens) (P42680 whole entry, looked up): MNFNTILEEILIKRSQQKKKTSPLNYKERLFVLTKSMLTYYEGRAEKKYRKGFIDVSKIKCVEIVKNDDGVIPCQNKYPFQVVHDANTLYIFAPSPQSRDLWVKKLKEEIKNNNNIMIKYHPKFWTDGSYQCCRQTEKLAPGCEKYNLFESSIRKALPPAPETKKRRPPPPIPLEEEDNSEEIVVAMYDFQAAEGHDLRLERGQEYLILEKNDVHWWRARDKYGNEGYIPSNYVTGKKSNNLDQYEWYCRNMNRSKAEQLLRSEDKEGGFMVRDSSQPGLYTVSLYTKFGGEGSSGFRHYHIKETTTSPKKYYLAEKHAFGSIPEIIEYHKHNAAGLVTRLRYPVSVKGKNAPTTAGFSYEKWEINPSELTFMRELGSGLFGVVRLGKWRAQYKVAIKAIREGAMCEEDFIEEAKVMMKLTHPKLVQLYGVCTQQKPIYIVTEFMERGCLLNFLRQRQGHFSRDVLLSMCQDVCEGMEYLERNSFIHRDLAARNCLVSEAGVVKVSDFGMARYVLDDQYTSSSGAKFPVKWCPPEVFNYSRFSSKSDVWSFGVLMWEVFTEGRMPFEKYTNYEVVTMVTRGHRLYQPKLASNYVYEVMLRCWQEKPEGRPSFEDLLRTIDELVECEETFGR

CNC(=O)c1cc(Oc2ccc(NC(=O)Nc3cc(C(C)(C)C)nn3-c3ccc4ncccc4c3)c(F)c2)ccn1 [Rebastinib]
> 1 µM: [1] | [2] | [3]

Reference: BindingDB's records for PubMed 21481795 (Tufts Medical Center)
